In patent US20180360721A1, “PEPTIDE FOR STIMULATING MELANOGENESIS” (priority 2017, published 2018):
Where a SMILES comes first, the peptide text is derived from it.

Tested on: B16F10 cells
Assay: MTT assay of cell viability
Type: cell-based, mouse
Conditions: different concentrations, 24, 48 or 72 hours
Description: B16F10 is a melanoma cell line isolated from mouse skin (American Type Culture Collection, USA) and was cultured in phenol red-free Dulbecco's Modified Eagle Medium (DMEM) containing 10% (v/v) FBS and penicillin/streptomycin (100 IU/[…]) in 5% CO2 at 37° C.
The cells (2×10^3) in 100 μl complete DMEM were seeded in 96-well plates and treated with the peptide of SEQ ID NO: 1 at different concentrations. The cells treated with ddH2O was used as controls. Ten microliters of 5 mg/ml 3-(4,5-dimethyl-2-thiazolyl)-2,5-diphenyl-2H-tetrazolium bromide solution (MTT; Sigma) was added to each well and incubated at 37° C. for 3 hours. After that, 100 μl 10% SDS in 0.01N HCl was added to dissolve the MTT formazan crystals. The resultant optical density was measured by spectrophotometry at dual wavelengths, 550 and 630 nm.

For `C[C@H](NC(=O)[C@H](CO)NC(=O)[C@@H](N)CC(N)=O)C(=O)N[C@H](C(=O)N[C@@H](CCC(=O)O)C(=O)N[C@@H](CCCNC(=N)N)C(=O)N[C@@H](CCC(=O)O)C(=O)O)[C@@H](C)O` [peptide of SEQ ID NO: 1, AsnSerAlaThrGluArgGlu] (H-NSATERE-OH), the “cell viability (MTT)” value was “did not significantly affect the viability” and the “cell viability (MTT)” value (listed as peptide having the amino acid sequence of SEQ ID NO: 1) was “did not significantly affect viability”.
